Assay: Pharmacokinetic study: acid of latanoprost in aqueous humor (AH) by HPLC
Format: in vivo, beagle dog
Settings: delivered by the spray ejector device
Description: Eight normal laboratory beagles were chosen for this study. Conditions for inclusion included normal overall health and normal ophthalmic state as determined by gross eye exam by a boarded veterinary ophthalmologist. Pre- and post-dosing mass deposition calibrations of the spray device were consistently within 10% of the intended dose of 9 μl. A 9.0 μl dose of a commercially available prostaglandin pro-drug, latanoprost, was instilled topically in two eyes of each of eight normotensive beagle dogs using the spray ejector device. Levels of the acid of latanoprost were measured in aqueous humor (AH) obtained by aqueocentesis over a 7-hour period each day for 5 days. This protocol was repeated for latanoprost 0.005% delivered by eyedropper (average dose 26 μl).
All dogs received a washout and acclimation period of two weeks. In Week 1, all animals were assigned to a group, with two animals each in Groups 1, 2, 4, and 7. […] IOP and PD were measured while the topical anesthetic took effect. […]
Week 3 followed the Week 1 protocol, with the substitution of eyedropper-delivered 0.005% latanoprost at an average dose of 26 μl at time 0. […] All AH samples were frozen to −80° C., stored overnight on dry ice, and then analyzed for the acid of latanoprost using a latanoprost-specific HPLC methodology. […]

CC(C)OC(=O)CCC/C=C\C[C@@H]1[C@@H](CC[C@@H](O)CCc2ccccc2)[C@H](O)C[C@@H]1O [latanoprost]
absorption rate vs eyedropper-delivered drug in higher doses: three-fold

From US12029682B2, “Spray ejector mechanisms and devices providing charge isolation and controllable droplet charge, and low dosage volume ophthalmic administration” (EYENOVIA, INC., priority 2012, dated 2024)
